In one assay the target is GP IIb/IIIa (Homo sapiens, UniProt P05106+P08514). Nature of the assay: Fibrinogen-GP IIbIIIa Receptor ELISA Binding Assay (GP IIb/IIIa). To be noted: read-out: GP IIb/IIla IC50. How it is done:
The test for inhibition of GP IIb/IIIa (“Fibrinogen-GP IIbIIIa Receptor ELISA Binding Assay”) was carried out as described in U.S. Pat. No. 5,403,836 which is incorporated herein by reference (the test method is abbreviated as “GP IIb/IIa” in the listing of the test results).
Background: ELISA stands for enzyme-linked immunosorbent assay.

Assay [1] concerns the target T1, human vitronectin receptor αvβ3 (Homo sapiens, UniProt P05106+P06756).
T1 construct: Human vitronectin receptor was obtained from the human placenta; from tissue; host or cells: human placenta
The assay can be described thus: Inhibition of the binding of kistrin to human vitronectin receptor (αvβ3 ELISA Test, K/VnR). From the text: The inhibition of the binding of kistrin to human vitronectin receptor (VnR) described below is a test method by which, for example, the antagonistic action of the compounds according to the invention on the vitronectin receptor αvβ3 can be determined (αvβ3 ELISA Test; the test method is abbreviated as “K/VnR” in the listing of the test results).
Kistrin was purified according to the methods of Dennis et al., as described in Proc. Natl. Acad. Sci. USA 87 (1989) 2471-2475 and PROTEINS: Structure, Function and Genetics 15 (1993) 312-321.
Human vitronectin receptor was obtained from the human placenta according to the method of Pytela et al., Methods Enzymol. 144 (1987) 475. Human vitronectin receptor αvβ3 can also be obtained from some cell lines (for example from 293 cells, a human embryonic kidney cell line) which are co-transfected with DNA sequences for both subunits αv and β3 of the vitronectin receptor. The subunits are extracted with octyl glycoside and then chromatographed through concanavalin A, heparin-Sepharose and S-300.
Murine monoclonal antibodies which are specific for the β3 subunits of the vitronectin receptor were prepared according to the method of Newman et al., Blood (1985) 227-232, or by a similar process. The rabbit Fab 2 anti-mouse Fc conjugate to horseradish peroxidase (anti-mouse Fc HRP) was obtained from Pel Freeze (Catalog No. 715 305-1).
The ability of substances to inhibit the binding of kistrin to the vitronectin receptor can be determined using an ELISA test. For this purpose, Nunc 96-well microtiter plates were coated with a solution of kistrin (0.002 mg/ml) according to the method of Dennis et al., as described in PROTEINS: Structure, Function and Genetics 15 (1993) 312-321. The plates were then washed twice with PBS/0.05% Tween-20 and blocked by incubating (60 min) with bovine serum albumin (BSA, 0.5%, RIA grade or better) in buffer solution (Tris-HCl (50 mM), NaCl (100 mM), MgCl2 (1 mM), CaCl2 (1 mM), MnCl2 (1 mM), pH 7). Solutions of known inhibitors and of the test substances were prepared in concentrations from 2×10^−12 to 2×10^−6 mol/l in assay buffer (BSA (0.5%, RIA grade or better); Tris-HCl (50 mM), NaCl (100 mM), MgCl2 (1 mM), CaCl2 (1 mM), MnCl2 (1 mM), pH 7). The blocked plates were emptied, and in each case 0.025 ml of this solution which contained a defined concentration (2×10^−12 to 2×10^−6 mol/l ) either of a known inhibitor or of a test substance, were added to each well. 0.025 ml of a solution of the vitronectin receptor in assay buffer (0.03 mg/ml) was pipetted into each well of the plate and the plate was incubated at room temperature for 60-180 min on a shaker. In the meantime, a solution (6 ml/plate) of a murine monoclonal antibody specific for the β3 subunit of the vitronectin receptor was prepared in assay buffer (0.0015 mg/ml). A second rabbit antibody (0.001 ml of stock solution/6 ml of the murine monoclonal anti-β3 antibody solution) which was an anti-mouse Fc HRP antibody conjugate was added to this solution, and this mixture of murine anti-β3 antibody and rabbit anti-mouse Fc HRP antibody conjugate was incubated during the time of the receptor-inhibitor incubation. The test plates were washed four times with PBS solution which contained 0.05% Tween-20, and in each case 0.05 ml/well of the antibody mixture was pipetted into each well of the plate and incubated for 60-180 min. The plate was washed four times with PBS/0.05% Tween-20 and then developed with 0.05 ml/well of a PBS solution which contained 0.67 mg/ml of o-phenylenediamine and 0.012% of H2O2. Alternatively to this, o-phenylenediamine can be employed in a buffer (pH 5) which contains Na3PO4 and citric acid. The color development was stopped using 1 N H2SO4 (0.05 ml/well). The absorption for each well was measured at 492-405 nm and the data were evaluated by standard methods.

T1 sequence (P06756 31-889 limits assumed): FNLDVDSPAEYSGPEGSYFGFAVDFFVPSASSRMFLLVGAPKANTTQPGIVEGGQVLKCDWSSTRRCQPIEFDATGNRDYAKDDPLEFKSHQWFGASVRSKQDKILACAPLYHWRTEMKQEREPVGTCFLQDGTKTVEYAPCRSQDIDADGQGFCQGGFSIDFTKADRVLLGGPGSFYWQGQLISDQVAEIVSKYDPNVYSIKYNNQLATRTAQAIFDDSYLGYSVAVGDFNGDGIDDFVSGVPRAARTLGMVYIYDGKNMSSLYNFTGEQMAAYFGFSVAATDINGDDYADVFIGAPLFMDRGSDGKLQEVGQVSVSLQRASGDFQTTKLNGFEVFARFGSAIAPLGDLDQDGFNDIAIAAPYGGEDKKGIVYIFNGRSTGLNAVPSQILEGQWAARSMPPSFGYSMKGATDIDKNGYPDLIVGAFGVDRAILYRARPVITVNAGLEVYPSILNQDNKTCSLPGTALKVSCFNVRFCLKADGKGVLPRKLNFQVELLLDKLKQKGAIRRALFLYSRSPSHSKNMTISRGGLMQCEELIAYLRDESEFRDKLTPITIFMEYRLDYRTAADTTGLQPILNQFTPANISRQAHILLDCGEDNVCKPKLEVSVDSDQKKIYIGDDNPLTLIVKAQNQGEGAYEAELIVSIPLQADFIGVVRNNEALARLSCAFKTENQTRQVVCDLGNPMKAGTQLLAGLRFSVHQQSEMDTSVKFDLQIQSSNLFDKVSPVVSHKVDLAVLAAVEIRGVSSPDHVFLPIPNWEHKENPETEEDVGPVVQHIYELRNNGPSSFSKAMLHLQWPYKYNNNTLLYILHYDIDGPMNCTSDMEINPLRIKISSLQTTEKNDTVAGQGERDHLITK
T1 sequence (P06756 891-1048 partner limits assumed): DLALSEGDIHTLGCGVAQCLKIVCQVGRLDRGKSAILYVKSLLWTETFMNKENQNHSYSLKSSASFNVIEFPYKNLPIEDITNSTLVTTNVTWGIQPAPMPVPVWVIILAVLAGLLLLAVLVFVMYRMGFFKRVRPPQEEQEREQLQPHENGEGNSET
T1 sequence (P05106 27-788): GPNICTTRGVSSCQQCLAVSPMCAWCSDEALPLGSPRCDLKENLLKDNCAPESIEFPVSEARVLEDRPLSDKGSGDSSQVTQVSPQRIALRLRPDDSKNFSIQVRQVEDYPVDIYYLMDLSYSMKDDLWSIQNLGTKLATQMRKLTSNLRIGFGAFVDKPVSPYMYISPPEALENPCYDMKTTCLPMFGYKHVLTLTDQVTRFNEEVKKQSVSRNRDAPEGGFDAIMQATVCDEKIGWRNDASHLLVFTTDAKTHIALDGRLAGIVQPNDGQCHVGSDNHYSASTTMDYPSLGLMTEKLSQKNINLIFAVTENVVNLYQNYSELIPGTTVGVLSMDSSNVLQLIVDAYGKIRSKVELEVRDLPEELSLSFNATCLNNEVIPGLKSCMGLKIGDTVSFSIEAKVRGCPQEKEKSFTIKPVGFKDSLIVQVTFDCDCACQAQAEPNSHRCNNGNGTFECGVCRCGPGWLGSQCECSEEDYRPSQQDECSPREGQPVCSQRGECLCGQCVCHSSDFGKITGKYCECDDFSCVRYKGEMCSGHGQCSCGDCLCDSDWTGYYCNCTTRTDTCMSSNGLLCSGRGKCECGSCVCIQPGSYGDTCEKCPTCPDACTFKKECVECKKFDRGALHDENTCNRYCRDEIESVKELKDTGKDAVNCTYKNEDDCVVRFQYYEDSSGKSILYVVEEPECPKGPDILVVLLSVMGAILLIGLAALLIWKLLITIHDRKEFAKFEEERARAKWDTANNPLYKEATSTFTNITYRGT
GP IIb/IIIa, sequence (P08514 32-887 limits assumed): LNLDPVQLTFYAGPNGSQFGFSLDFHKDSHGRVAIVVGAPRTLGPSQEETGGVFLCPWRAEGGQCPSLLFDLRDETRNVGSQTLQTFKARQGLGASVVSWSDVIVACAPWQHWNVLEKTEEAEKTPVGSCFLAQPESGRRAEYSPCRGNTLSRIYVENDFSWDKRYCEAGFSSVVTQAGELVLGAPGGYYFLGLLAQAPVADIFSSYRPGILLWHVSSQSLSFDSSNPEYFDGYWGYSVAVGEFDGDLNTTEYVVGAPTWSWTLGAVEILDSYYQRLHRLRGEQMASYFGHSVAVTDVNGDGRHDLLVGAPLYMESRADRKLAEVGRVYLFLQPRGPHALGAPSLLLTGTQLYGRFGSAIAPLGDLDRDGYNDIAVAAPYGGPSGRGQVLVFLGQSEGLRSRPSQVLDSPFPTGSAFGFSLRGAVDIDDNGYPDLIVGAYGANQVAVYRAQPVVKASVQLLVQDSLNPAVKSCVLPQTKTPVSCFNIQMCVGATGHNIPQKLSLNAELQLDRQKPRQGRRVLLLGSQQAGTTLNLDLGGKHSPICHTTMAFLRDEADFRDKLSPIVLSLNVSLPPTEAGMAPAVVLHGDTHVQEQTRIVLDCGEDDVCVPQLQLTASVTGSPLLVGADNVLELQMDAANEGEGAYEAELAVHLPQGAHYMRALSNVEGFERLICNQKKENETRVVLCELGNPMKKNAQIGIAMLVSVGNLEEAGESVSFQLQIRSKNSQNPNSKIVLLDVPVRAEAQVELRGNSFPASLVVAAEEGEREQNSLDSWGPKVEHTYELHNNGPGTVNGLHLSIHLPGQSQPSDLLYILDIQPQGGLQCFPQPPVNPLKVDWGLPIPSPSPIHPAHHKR
GP IIb/IIIa, sequence (P08514 891-1039 partner limits assumed): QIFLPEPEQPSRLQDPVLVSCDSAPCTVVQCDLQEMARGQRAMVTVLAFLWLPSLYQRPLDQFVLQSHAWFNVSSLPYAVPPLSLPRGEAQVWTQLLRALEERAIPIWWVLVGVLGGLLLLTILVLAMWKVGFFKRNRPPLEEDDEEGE
GP IIb/IIIa, sequence (P05106 27-788): as the sequence (P05106 27-788) above

Take `O=C(CCCOc1ccc(C[C@H](NS(=O)(=O)c2ccccc2)C(=O)O)cc1)NC1=NCCCN1` [Example 4, (2S)-2-Benzenesulfonylamino-3-{4-[3-(1,4,5,6-tetrahydropyrimidin-2-ylcarbamoyl)-propoxy]-phenyl}-propionic acid]: the results for the IC50 (on GP IIb/IIIa; in assay [1]) were 410 nM and 2.8 nM, respectively.
On the same counts, the results for `CCCCCCCCS(=O)(=O)N[C@@H](Cc1ccc(OCCCC(=O)NC2=NCCCN2)cc1)C(=O)O` [Example 10, (2S)-2-(Octane-1-sulfonylamino)-3-{4-[3-(1,4,5,6-tetrahydropyrimidin-2-ylcarbamoyl)-propoxy]-phenyl}-propionic acid] are 2400 nM and 7.6 nM.
On the same counts, the results for `O=C(CCCOc1ccc(C[C@H](NS(=O)(=O)c2ccc3ccccc3c2)C(=O)O)cc1)NC1=NCCCN1` [Example 1, (2S)-2-(Naphthalene-2-sulfonylamino)-3-{4-[3-(1,4,5,6-tetrahydropyrimidin-2-ylcarbamoyl)-propoxy]-phenyl}-propionic acid] are 260 nM and 7.5 nM.
In the same order, the values of `O=C(CCCOc1ccc(C[C@H](NS(=O)(=O)c2ccc(C(F)(F)F)cc2)C(=O)O)cc1)NC1=NCCCN1` [Example 5, (2S)-3-{4-[3-(1,4,5,6-Tetrahydropyrimidin-2-ylcarbamoyl)-propoxy]-phenyl}-2-(4-trifluoromethylbenzenesulfonylamino)-propionic acid] are 3150 nM and 3.5 nM.
Regarding `O=C(CCCOc1ccc(C[C@H](NS(=O)(=O)c2ccc(Br)cc2)C(=O)O)cc1)NC1=NCCCN1` [Example 7, (2S)-2-(4-Bromobenzenesulfonylamino)-3-{4-[3-(1,4,5,6-tetrahydropyrimidin-2-ylcarbamoyl)-propoxy]-phenyl}-propionic acid], the IC50 on GP IIb/IIIa was found to be 950 nM; in assay [1], 3.5 nM.
On the same counts, the results for `Cc1ccc(S(=O)(=O)N[C@@H](Cc2ccc(OCCCC(=O)NC3=NCCCN3)cc2)C(=O)O)cc1` [Example 6, (2S)-3-{4-[3-(1,4,5,6-Tetrahydropyrimidin-2-ylcarbamoyl)-propoxy]-phenyl}-2-(toluene4-sulfonylamino)-propionic acid] are 720 nM and 2.8 nM.
In the same order, the values of `O=C(CCCOc1ccc(C[C@H](NS(=O)(=O)c2cccc3ccccc23)C(=O)O)cc1)NC1=NCCCN1` [Example 2, (2S)-2-(Naphthalene-1-sulfonylamino)-3-{4-[3-(1,4,5,6-tetrahydropyrimidin-2-ylcarbamoyl)-propoxy]-phenyl}-propionic acid] are 525 nM and 2.7 nM.
On the same counts, the results for `O=C(CCCOc1ccc(C[C@H](NS(=O)(=O)c2ccc(Cl)cc2)C(=O)O)cc1)NC1=NCCCN1` [Example 3, (2S)-2-(4-Chlorobenzenesulfonylamino)-3-{4-[3-(1,4,5,6-tetrahydropyrimidin-2-ylcarbamoyl)-propoxy]-phenyl}-propionic acid] are 765 nM and 3 nM.
Turning to `CCCCS(=O)(=O)N[C@@H](Cc1ccc(OCCCC(=O)NC2=NCCCN2)cc1)C(=O)O` [Example 9, (2S)-2-(Butane-1-sulfonylamino)-3-{4-[3-(1,4,5,6-tetrahydropyrimidin-2-ylcarbamoyl)-propoxy]-phenyl}-propionic acid], the IC50 was 2100 nM at GP IIb/IIIa and 5.3 nM in assay [1].
In the same order, the values of `O=C(CCCOc1ccc(C[C@H](NS(=O)(=O)c2cccs2)C(=O)O)cc1)NC1=NCCCN1` [Example 8, (2S)-3-{4-[3-(1,4,5,6-Tetrahydropyrimidin-2-ylcarbamoyl)-propoxy]-phenyl}-2-(thiophene-2-sulfonylamino)-propionic acid] are 330 nM and 2.5 nM.

The values are drawn from patent US6340679B1, “Guanidine derivatives as inhibitors of cell adhesion” (Aventis Pharma Deutschland GmbH, priority 1999, dated 2002).
